Laboratory results from ChEMBL document CHEMBL3045229, “Molluscicidal and insecticidal potential of monoterpenes on the white garden snail, Theba pisana (Muller) and the cotton leafworm, Spodoptera littoralis (Boisduval)” (2010).
In brackets after ≈: the same amount, converted by molar mass. Activity calls are given as the source filed them. The rule behind the calls is not given here.

How the values were obtained:
Assay type in all cases: functional
Theba pisana [1] = assay: Fumigant molluscicidal activity against Theba pisana (white garden snail) assessed as snail mortality after 24 hr
Spodoptera littoralis [2] = assay: Fumigant insecticidal activity against cotton leafworm Spodoptera littoralis third-instar larvae fed on fresh castor bean leaves assessed as insect mortality after 24 hr
Spodoptera littoralis [3] = assay: Contact insecticidal activity against cotton leafworm Spodoptera littoralis third-instar larvae exposed to 1 mg/larva compound application through dorsum of larvae followed by feeding on fresh castor bean leaves assessed as insect mortality after 24 hr; conditions: for Activity: Skin of body
Theba pisana [4] = assay: Contact molluscicidal activity against Theba pisana (white garden snail ) exposed to compound throgh application to surface of snail body inside shell assessed as compound level per snail causing snail mortality after 24 hr

Structure (SMILES)	LC50 (Theba pisana [1])	LC50 (Spodoptera littoralis [2])	Activity (Spodoptera littoralis [3])	LD50 (Theba pisana [4])	mortality (Spodoptera littoralis [3])
C=C(C)[C@@H]1CC=C(C)CC1 [(-)-LIMONENE]	8.39 µg/mL (≈ 61.6 µM)	11.4 µg/mL (≈ 83.4 µM)	Active	60.27 µg	–
C=C[C@@](C)(O)CC=C(C)C [(-)-LINALOOL]	–	–	Active	–	–
CC1(C)C(=O)[C@@]2(C)CC[C@H]1C2 [(L)-FENCHONE]	2.51 µg/mL (≈ 16.5 µM)	2.27 µg/mL (≈ 14.9 µM)	Active	135.36 µg	–
C=C1C2CCC(C2)C1(C)C (configuration not stated) [CAMPHENE]	33.5 µg/mL (≈ 246 µM)	> 100 µg/mL	Active	>1000 µg	–
CC12CCC(CC1=O)C2(C)C (configuration not stated) [CAMPHOR]	7.98 µg/mL (≈ 52.4 µM)	5.61 µg/mL (≈ 36.9 µM)	Active	89.15 µg	–
CC(C)c1ccc(C=O)cc1 [CUMINALDEHYDE]	> 100 µg/mL	> 100 µg/mL	–	28.37 µg	70%
CC12CCC(CC1)C(C)(C)O2 [EUCALYPTOL]	4.17 µg/mL (≈ 27 µM)	4.34 µg/mL (≈ 28.1 µM)	Active	223.44 µg	–
CC(C)=CCC/C(C)=C/CO [GERANIOL]	> 100 µg/mL	> 100 µg/mL	–	42.29 µg	76.7%
C=C(C)[C@@H]1CC=C(C)C(=O)C1 [L-CARVONE]	27 µg/mL (≈ 180 µM)	19.5 µg/mL (≈ 130 µM)	Active	132.18 µg	–
CC1CCC(C(C)C)C(O)C1 (configuration not stated) [MENTHOL]	> 100 µg/mL	9.36 µg/mL (≈ 59.9 µM)	Active	99.44 µg	–
CNC(=O)Oc1cc(C)c(SC)c(C)c1 [METHIOCARB]	–	–	–	188.68 µg	–
C=CC(=C)CCC=C(C)C [MYRCENE]	3.88 µg/mL (≈ 28.5 µM)	> 100 µg/mL	Active	>1000 µg	–
